Holding throughout (type): cell-based
One test concerns the target human GcgR (Homo sapiens, UniProt P47871). In words: Functional cAMP activity in the presence of 1% HSA. The following applies: read-out: cAMP Rel EC50, hGcgR.
Test [1] has as its target T1, hGIPR (Homo sapiens, UniProt P48546).
T1 sequence (P48546 22-466): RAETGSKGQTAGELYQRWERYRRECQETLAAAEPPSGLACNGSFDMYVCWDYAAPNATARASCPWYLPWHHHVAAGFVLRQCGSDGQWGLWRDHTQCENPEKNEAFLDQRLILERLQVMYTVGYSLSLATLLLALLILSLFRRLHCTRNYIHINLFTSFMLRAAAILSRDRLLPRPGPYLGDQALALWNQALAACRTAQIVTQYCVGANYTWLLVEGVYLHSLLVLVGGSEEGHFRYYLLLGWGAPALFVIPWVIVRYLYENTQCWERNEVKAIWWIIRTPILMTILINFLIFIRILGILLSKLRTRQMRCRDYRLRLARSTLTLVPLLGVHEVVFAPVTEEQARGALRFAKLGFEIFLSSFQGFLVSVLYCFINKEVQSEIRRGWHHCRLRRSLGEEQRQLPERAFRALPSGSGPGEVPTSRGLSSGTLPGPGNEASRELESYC
Briefly: Functional cAMP activity in the presence of 1% HSA. As to conditions: read-out: cAMP Rel EC50, hGIPR.

Another test has as its target hGcgR (Homo sapiens, UniProt P47871). Briefly: Functional cAMP activation in the presence of 0.1% casein (no HSA). As to conditions: read-out: Relative cAMP EC50, hGcgR.
The target in test [2] is T1, hGIPR. The test is described as above. The following applies: read-out: Relative cAMP EC50, hGIPR.
Method: After a 30-minute incubation at 37° C., the resulting increase in intracellular cAMP is quantitatively determined using the CisBio CAMP Dynamic 2 HTRF Assay Kit (62AM4PEJ). Briefly, cAMP levels within the cell are detected by adding the cAMP-d2 conjugate in cell lysis buffer followed by the antibody anti-cAMP-Eu^3+-Cryptate, also in cell lysis buffer.
Intracellular cAMP levels are determined by extrapolation using a standard curve. Dose response curves of compounds are plotted as the percentage of stimulation normalized to minimum (buffer only) and maximum (maximum concentration of each control ligand) values and analyzed using a four parameter non-linear regression fit with a variable slope (Genedata Screener 13). EC50 is the concentration of compound causing half-maximal simulation in a dose response curve. Each relative EC50 value for the Geometric mean calculation is determined from a curve fitting.
The target in test [3] is T2, hGLP-1R (Homo sapiens, UniProt P43220). Briefly: Functional cAMP activity in the presence of 1% HSA. The following applies: read-out: cAMP Rel EC50, hGLP-1R.
The target in test [4] is T2, hGLP-1R. Briefly: Functional cAMP activation in the presence of 0.1% casein (no HSA). The following applies: read-out: Relative cAMP EC50, hGLP-1R.
Where [5] appears, read: in the presence of 0.1% casein (no HSA), geometric mean.
[6] abbreviates: 0.1% casein, no HSA, geometric mean.

Where two headings read alike, the source gives them in different places. Starred links: 1 amine or outer side, 2 acyl side, 3 side chain; linkers in the order of their positions; H or OH if unused. Non-standard residues stand in square brackets, D forms with d. Residues, ends and D or L forms follow the SMILES beside them. Groups on a side chain read outwards from the residue. *: point of attachment. C18 diacid = O=C(O)CCCCCCCCCCCCCCCCC(=O)*; αMePhe(2-F) = C[C@](N)(Cc1ccccc1F)C(=O)O; γGlu = O=C(O)[C@H](CCC(=O)[*:2])N[*:1]; αMe4Pal = C[C@](N)(Cc1ccncc1)C(=O)O; αMeY = C[C@](N)(Cc1ccc(O)cc1)C(=O)O; Hyp = O=C(O)[C@@H]1C[C@@H](O)CN1; 4Pal = N[C@@H](Cc1ccncc1)C(=O)O; αMeL = CC(C)C[C@](C)(N)C(=O)O; αMeS = C[C@](N)(CO)C(=O)O; Orn = NCCC[C@H](N)C(=O)O; Dab = NCC[C@H](N)C(=O)O; AEEA = NCCOCCOCC(=O)O; Aib = CC(C)(N)C(=O)O
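Throughout, for Relative cAMP EC50, hGIPR: intracellular cAMP rise after 30 min at 37 °C read by HTRF against a standard curve, scaled between buffer alone (0%) and top control ligand concentration (100%), four-parameter fit.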
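Throughout, for Relative cAMP EC50, hGLP-1R: intracellular cAMP rise after 30 min at 37 °C read by HTRF, normalized between buffer only (0%) and maximal control ligand (100%), four-parameter variable-slope fit.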
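Throughout, for Relative cAMP EC50, hGcgR: intracellular cAMP rise after 30 min at 37 °C, read by HTRF against a cAMP standard curve, scaled from buffer only (0%) to maximal control ligand response (100%).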

Sequence of hGcgR (P47871 26-477): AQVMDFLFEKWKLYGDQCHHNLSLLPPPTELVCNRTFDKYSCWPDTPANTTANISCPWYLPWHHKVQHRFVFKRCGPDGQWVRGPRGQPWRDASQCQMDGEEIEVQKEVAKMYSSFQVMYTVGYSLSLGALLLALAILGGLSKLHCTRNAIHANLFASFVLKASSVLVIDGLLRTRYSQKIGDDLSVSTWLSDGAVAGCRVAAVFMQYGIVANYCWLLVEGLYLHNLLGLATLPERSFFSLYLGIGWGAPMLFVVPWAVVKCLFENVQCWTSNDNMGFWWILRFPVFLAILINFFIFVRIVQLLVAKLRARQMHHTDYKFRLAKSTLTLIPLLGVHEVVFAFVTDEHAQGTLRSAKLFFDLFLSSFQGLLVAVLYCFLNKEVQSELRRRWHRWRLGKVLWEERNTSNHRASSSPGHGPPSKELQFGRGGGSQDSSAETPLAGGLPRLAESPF
Sequence of human GcgR (P47871 26-477): as above
T2 sequence (P43220 24-463): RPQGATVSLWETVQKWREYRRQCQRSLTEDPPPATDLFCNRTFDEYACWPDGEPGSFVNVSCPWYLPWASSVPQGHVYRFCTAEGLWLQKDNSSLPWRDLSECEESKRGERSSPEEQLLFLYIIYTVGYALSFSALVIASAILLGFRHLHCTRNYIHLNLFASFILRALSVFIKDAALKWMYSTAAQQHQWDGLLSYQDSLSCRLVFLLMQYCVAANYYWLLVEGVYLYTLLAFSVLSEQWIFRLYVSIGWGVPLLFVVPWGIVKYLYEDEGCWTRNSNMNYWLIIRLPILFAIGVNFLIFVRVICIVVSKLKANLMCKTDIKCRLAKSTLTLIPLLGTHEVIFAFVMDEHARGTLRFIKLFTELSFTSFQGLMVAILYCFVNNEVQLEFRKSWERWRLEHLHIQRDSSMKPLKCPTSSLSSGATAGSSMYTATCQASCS

The term EC50 denotes the concentration at which the effect is half-maximal. As to `CC[C@H](C)[C@H](NC(=O)[C@H](CO)NC(=O)[C@H](Cc1ccc(O)cc1)NC(=O)[C@H](CC(=O)O)NC(=O)[C@H](CO)NC(=O)[C@@H](NC(=O)[C@](C)(Cc1ccccc1)NC(=O)[C@@H](NC(=O)CNC(=O)[C@H](CCC(N)=O)NC(=O)C(C)(C)NC(=O)[C@@H](N)Cc1ccc(O)cc1)[C@@H](C)O)[C@@H](C)O)C(=O)N[C@@H](CC(C)C)C(=O)N[C@@H](CC(C)C)C(=O)N[C@@H](CC(=O)O)C(=O)N[C@@H](CCCCN)C(=O)N[C@@H](CCCCNC(=O)COCCOCCNC(=O)COCCOCCNC(=O)CC[C@H](NC(=O)CCCCCCCCCCCCCCCCC(=O)O)C(=O)O)C(=O)N[C@@H](C)C(=O)N[C@@H](CCC(N)=O)C(=O)NC(C)(C)C(=O)N[C@@H](C)C(=O)N[C@@H](Cc1ccccc1)C(=O)N[C@H](C(=O)N[C@H](CCC(=O)O)C(=O)N[C@@H](Cc1ccc(O)cc1)C(=O)N[C@@H](CC(C)C)C(=O)N[C@@H](CC(C)C)C(=O)N[C@@H](CCC(=O)O)C(=O)NCC(=O)NCC(=O)N1CCC[C@H]1C(=O)N[C@@H](CO)C(=O)N[C@@H](CO)C(=O)NCC(=O)N[C@@H](C)C(=O)N1CCC[C@H]1C(=O)N1CCC[C@H]1C(=O)N1CCC[C@H]1C(=O)N[C@@H](CO)C(N)=O)[C@@H](C)CC` [Example 419], the 50% effective concentration (EC50) was 1650 nM at human GcgR; 9.47 nM at hGIPR [1]; 8.52 nM at hGcgR; 0.0235 nM at hGIPR [2]; 65.5 nM on hGLP-1R [3]; 0.615 nM on hGLP-1R [4].
Consider `CC[C@H](C)[C@H](NC(=O)[C@H](Cc1ccccc1)NC(=O)[C@H](C)NC(=O)C(C)(C)NC(=O)[C@H](CCC(N)=O)NC(=O)[C@H](C)NC(=O)[C@H](CCCCNC(=O)CC[C@H](NC(=O)CC[C@H](NC(=O)CCCCCCCCCCCCCCCCC(=O)O)C(=O)O)C(=O)O)NC(=O)[C@H](CCCCN)NC(=O)[C@H](CC(=O)O)NC(=O)[C@H](CC(C)C)NC(=O)[C@](C)(CC(C)C)NC(=O)[C@@H](NC(=O)[C@H](CO)NC(=O)[C@H](Cc1ccncc1)NC(=O)[C@H](CC(=O)O)NC(=O)[C@H](CO)NC(=O)[C@@H](NC(=O)[C@](C)(Cc1ccccc1F)NC(=O)[C@@H](NC(=O)CNC(=O)[C@H](CCC(N)=O)NC(=O)C(C)(C)NC(=O)[C@@H](N)Cc1ccc(O)cc1)[C@@H](C)O)[C@@H](C)O)[C@@H](C)CC)C(=O)N[C@@H](CCC(=O)O)C(=O)N[C@@H](Cc1ccc(O)cc1)C(=O)N[C@@H](CC(C)C)C(=O)N[C@@H](CCC(=O)O)C(=O)N[C@@H](CCC(=O)O)C(=O)NCC(=O)NCC(=O)N1CCC[C@H]1C(=O)N[C@@H](CO)C(=O)N[C@@H](CO)C(=O)NCC(=O)N[C@@H](C)C(=O)N1CCC[C@H]1C(=O)N1CCC[C@H]1C(=O)N1CCC[C@H]1C(=O)N[C@@H](CO)C(N)=O` [Example 440] (H-Y[Aib]QGT[αMePhe(2-F)]TSD[4Pal]SI[αMeL]LDKK([γGlu-γGlu-C18 diacid])AQ[Aib]AFIEYLEEGGPSSGAPPPS-NH2), for which the concentration for a half-maximal effect (EC50) amounted to 830 nM at human GcgR; 1.81 nM at hGIPR [1]; 7.14 nM at hGcgR; 0.0226 nM on hGIPR [2]; 27.4 nM on hGLP-1R [3]; 0.467 nM on hGLP-1R [4].
On to “H-Y[Aib]QGTFTSD[4Pal]SQ[αMeL]LD[Orn]K([γGlu-γGlu-C18 diacid])AQ[αMe4Pal]AFIE[αMeY]LIEGGPSSGAPPPSGSEE-NH2 [Example 1043]”, for which the concentration giving a half-maximal response (EC50) is 2240 nM at human GcgR; 44.9 nM at hGIPR [1]; 17.1 nM on hGcgR (setting [5]); 0.282 nM at hGIPR [2] (setting [5]); 268 nM at hGLP-1R [3]; 1.52 nM on hGLP-1R [4] (setting [5]).
For the compound “H-Y[Aib]QGT[αMePhe(2-F)]TSD[4Pal]SILLD[Orn]K([γGlu-γGlu-C18 diacid])AQ[Aib]AFIEYLEEGGPSSGAPPPSGTE-NH2 [Example 513]”, the concentration for a half-maximal effect (EC50) came to 1440 nM at human GcgR; 10.3 nM on hGIPR [1]; 9.58 nM at hGcgR; 0.0956 nM at hGIPR [2]; 78.2 nM on hGLP-1R [3]; 0.634 nM at hGLP-1R [4].
“H-Y[Aib]QGTFTSDFS[Dab][αMeL]LDKK([AEEA-γGlu-C18 diacid])AQ[Aib]AFIEYLIE[Aib]GPSSGAPPPSGS-NH2 [Example 799]”: the EC50 on human GcgR turned out to be 574 nM; on hGIPR [1], 18.4 nM; at hGcgR (setting [5]) it was 1.64 nM; at hGIPR [2] (setting [5]), 0.0668 nM; at hGLP-1R [3], 179 nM; at hGLP-1R [4] (setting [5]) it was 0.462 nM.
As to “H-Y[Aib]QGT[αMePhe(2-F)]TSD[4Pal]SI[αMeL]LD[Orn]K([AEEA-γGlu-C18 diacid])AQ[Aib][Orn]FIEYLIEGGPSSGEPPPEEG-NH2 [Example 477]”, the 50% effective concentration (EC50) on human GcgR was determined as 716 nM; at hGIPR [1], 1.44 nM; on hGcgR, 5.26 nM; at hGIPR [2] it was 0.0127 nM; at hGLP-1R [3], 18.7 nM; at hGLP-1R [4] it was 0.173 nM.
On to `CC[C@H](C)[C@H](NC(=O)[C@H](CO)NC(=O)[C@H](Cc1ccc(O)cc1)NC(=O)[C@H](CC(=O)O)NC(=O)[C@H](CO)NC(=O)[C@@H](NC(=O)[C@](C)(Cc1ccccc1F)NC(=O)[C@@H](NC(=O)CNC(=O)[C@H](CCC(N)=O)NC(=O)C(C)(C)NC(=O)[C@@H](N)Cc1ccc(O)cc1)[C@@H](C)O)[C@@H](C)O)C(=O)N[C@@H](CC(C)C)C(=O)N[C@@H](CC(C)C)C(=O)N[C@@H](CC(=O)O)C(=O)N[C@@H](CCCCN)C(=O)N[C@@H](CCCCNC(=O)CC[C@H](NC(=O)CC[C@H](NC(=O)CCCCCCCCCCCCCCCCC(=O)O)C(=O)O)C(=O)O)C(=O)N[C@@H](C)C(=O)N[C@@H](CCC(N)=O)C(=O)NC(C)(C)C(=O)N[C@@H](CC(N)=O)C(=O)N[C@@H](Cc1ccccc1)C(=O)N[C@H](C(=O)N[C@@H](CCC(=O)O)C(=O)N[C@@H](Cc1ccc(O)cc1)C(=O)N[C@@H](CC(C)C)C(=O)N[C@@H](CCC(=O)O)C(=O)N[C@@H](CCC(=O)O)C(=O)NCC(=O)NCC(=O)N1CCC[C@H]1C(=O)N[C@@H](CO)C(=O)N[C@@H](CO)C(=O)NCC(=O)N[C@@H](C)C(=O)N1CCC[C@H]1C(=O)N1CCC[C@H]1C(=O)N1CCC[C@H]1C(=O)N[C@@H](CO)C(N)=O)[C@@H](C)CC` [Example 416] (H-Y[Aib]QGT[αMePhe(2-F)]TSDYSILLDKK([γGlu-γGlu-C18 diacid])AQ[Aib]NFIEYLEEGGPSSGAPPPS-NH2), for which the EC50 was determined as 348 nM on human GcgR; 27.6 nM on hGIPR [1]; 2.08 nM at hGcgR; 0.0393 nM at hGIPR [2]; 40.8 nM on hGLP-1R [3]; 0.331 nM at hGLP-1R [4].
For “H-Y[Aib]QGTFTSD[4Pal]S[Orn][αMeL]LD[Orn]K([γGlu-γGlu-C18 diacid])AQ[αMe4Pal]QFIEYLLAGGPSSGAPPPSGSEE-NH2 [Example 1002]”, the EC50 on human GcgR was 197 nM; at hGIPR [1], 11.6 nM; at hGcgR (setting [5]), 1.89 nM; on hGIPR [2] (setting [5]) it was 0.119 nM; on hGLP-1R [3], 1290 nM; on hGLP-1R [4] (setting [5]), 9.09 nM.
With “H-Y[Aib]QGT[αMePhe(2-F)]TSD[4Pal][αMeS]I[αMeL]LD[Orn]K([AEEA-γGlu-C18 diacid])AQ[αMe4Pal]EFI[dE][αMeY]LIEGGPSSGAPPPEGGGEE-NH2 [Example 1216]”, the concentration giving a half-maximal response (EC50) worked out at 225 nM on human GcgR; 0.914 nM on hGIPR [1]; 1.83 nM on hGcgR (setting [6]); 0.00921 nM on hGIPR [2] (setting [6]); 66.9 nM on hGLP-1R [3]; 0.65 nM at hGLP-1R [4] (setting [6]).
Take “H-Y[Aib]QGTFTSDFS[Orn][αMeL]LDKK([AEEA-γGlu-C18 diacid])AQ[Aib]AFIEYLLEGGPSSGAPP[Hyp]GGS-NH2 [Example 237]”: the EC50 at human GcgR is 441 nM; at hGIPR [1], 30.9 nM; at hGcgR (setting [5]) it was 3.77 nM; at hGIPR [2] (setting [5]) it was 0.228 nM; on hGLP-1R [3] it was 291 nM; at hGLP-1R [4] (setting [5]) it was 3.4 nM.
With “H-Y[Aib]QGTFTSD[4Pal]SR[αMeL]LDKK([AEEA-AEEA-γGlu-C18 diacid])AQ[αMe4Pal]AFIEYLIE[Aib]GPSSGAPPPSGS-NH2 [Example 815]”, the EC50 stood at 798 nM on human GcgR; 17.9 nM on hGIPR [1]; 4.13 nM at hGcgR (setting [5]); 0.181 nM at hGIPR [2] (setting [5]); 342 nM on hGLP-1R [3]; 2.79 nM at hGLP-1R [4] (setting [5]).
As to “H-Y[Aib]QGT[αMePhe(2-F)]TSD[4Pal][αMeS]I[αMeL]LD[Orn]K([AEEA-γGlu-C18 diacid])AA[Aib]EFI[dE][αMeY]LLEGGPSSGAPPPSGS-NH2 [Example 672]”, the EC50 at human GcgR was found to be 162 nM; on hGIPR [1] it was 1.53 nM; at hGcgR, 1.19 nM; on hGIPR [2] it was 0.014 nM; at hGLP-1R [3] it was 49.4 nM; on hGLP-1R [4], 0.389 nM.
